Data as given in US6869913B1, “Pyridazin-3-one derivatives, their use and intermediates for their production” (Sumitomo Chemical Company, Limited, priority 1995, dated 2005).

Assays:
Format in all cases: in vivo
[1] = system: velvetleaf (Abutilon theophrash); experiment: Test Example 2: foliar treatment on upland fields; set-up: key: rating; 4–5 = excellent activity, 3 or lower = insufficient; conditions: 32 g/ha active ingredient; foliar spray; examined 19 days after application
Description: (§1) The herbicidal activity is excellent when rated at “4” or “5” but insufficient when rated at “3” or lower. The phytotoxicity is no problematic on practical use when rated at “0” or “1” but not allowed when rated at “2” or higher.
(§2) Cylindrical plastic pots of 10 cm in diameter and 10 cm in depth were filled with soil, in which the seeds of barnyardgrass (Echinochloa crus-galli), entireleaf morningglory (Ipomoea hederacea var. integriuscula) and velvetleaf (Abutilon theophrash) were sowed, and the test plants were grown in a greenhouse for 19 days. Each of the test compounds listed below was formulated into an emulsifiable concentrate according to Formulation Example 2, which was diluted with water containing a spreading agent to a prescribed concentration. The dilution was uniformly sprayed over the foliage of the test plants with a sprayer at a volume of 1000 liters per hectare. After the application, the test plants were grown in the greenhouse for 19 days, and the herbicidal activity was examined.

[2] = system: barnyardgrass (Echinochloa crus-galli); experiment: Test Example 2: foliar treatment on upland fields; set-up: key: rating; 4–5 = excellent activity, 3 or lower = insufficient; conditions: 32 g/ha active ingredient; foliar spray; examined 19 days after application
Description: as §1, §2

[3] = system: entireleaf morningglory (Ipomoea hederacea var. integriuscula); experiment: Test Example 2: foliar treatment on upland fields; set-up: key: rating; 4–5 = excellent activity, 3 or lower = insufficient; conditions: 32 g/ha active ingredient; foliar spray; examined 19 days after application
Description: as §1, §2

[4] = system: pale smartweed (Polygonum lapathifolium); experiment: Test Example 6: foliar treatment on upland fields; conditions: 63 g/ha active ingredient; foliar spray; 25 days after application
Description: as §1
(§3) Plastic pots of 16×11 cm^2 in are and 7 cm in depth were filled with soil, in which the seeds of wheat (Triticum aestivum), pale smartweed (Polygonum lapathifolium), catchweed bedstraw (Galium aparine), and common chickweed (Stellaria media) were sowed, and the test plants were grown for 29 days. Each of the test compounds listed below was formulated into an emulsifiable concentrate according to Formulation Example 2, which was diluted with water to a prescribed concentration. The dilution was uniformly sprayed over the foliage of the test plants with a sprayer at a volume of 1000 liters per hectare. At this time, the unfavorable weeds and crop plants, although their growth state was different depending upon the weed species, were at the 1- to 4-leaf stage, and the plant height was 5 to 15 cm. After 25 days from the application, the herbicidal activity and phytotoxicity were examined. This test was made in a greenhouse over the entire period.

[5] = system: catchweed bedstraw (Galium aparine); experiment: Test Example 6: foliar treatment on upland fields; conditions: 63 g/ha active ingredient; foliar spray; 25 days after application
Description: as §1, §3

[6] = system: common chickweed (Stellaria media); experiment: Test Example 6: foliar treatment on upland fields; conditions: 63 g/ha active ingredient; foliar spray; 25 days after application
Description: as §1, §3

[7] = system: velvetleaf (Abutilon theophrash); experiment: Test Example 3: soil surface treatment on upland fields; conditions: 500 g/ha active ingredient; soil surface spray; examined after 19 days
Procedure: (§4) Cylindrical plastic pots of 10 cm in diameter and […] in depth were filled with soil, in which the seeds of […] (Ipomoea hederacea var. integriuscula) and velvetleaf (Abutilon theophrash) were sowed. Each of the test compounds listed below was formulated into an emulsifiable concentrate according to Formulation Example 2, which was diluted with water to a prescribed concentration. The dilution was uniformly sprayed over the soil surface in the pots with a sprayer at a volume of 1000 liters per hectare. After the application, the test plants were grown in a greenhouse for 19 days, and the herbicidal activity was examined.

[8] = system: entireleaf morningglory (Ipomoea hederacea var. integriuscula); experiment: as above; conditions: 500 g/ha active ingredient; soil surface spray; examined after 19 days
Procedure: as §4

[9] = system: velvetleaf (Abutilon theophrash); experiment: Test Example 1: foliar treatment on upland fields; conditions: 500 g/ha active ingredient; foliar spray; examined 19 days after application
Procedure: as §2, with “barnyardgrass (Echinochloa crus-galli), entireleaf morningglory” left out

[10] = system: entireleaf morningglory (Ipomoea hederacea var. integriuscula); experiment: Test Example 1: foliar treatment on upland fields; conditions: 500 g/ha active ingredient; foliar spray; examined 19 days after application
Procedure: as §2, with “barnyardgrass (Echinochloa crus-galli), entireleaf morningglory” left out

[11] = system: barnyardgrass (Echinochloa oryzicola); experiment: Test Example 4: flooding treatment on paddy fields; conditions: application amount of active ingredient 250 g/ha, examined 19 days after application, index 0 to 5
Procedure: Cylindrical plastic pots of 9 cm in diameter and 11 cm in depth were filled with soil, in which the seeds of barnyardgrass (Echinochloa oryzicola) were sowed. These pots were flooded to form a paddy field, and the test plants were grown in a greenhouse for 7 days. Each of the test compounds listed below was formulated into an emulsifiable concentrate according to Formulation Example 2, which was diluted with water to a prescribed concentration. The dilution was applied to the water surface in the pots at a volume of 50 liters per hectare. After the application, the test plants were grown in the greenhouse for 19 days, and the herbicidal activity was examined.

[12] = system: common cocklebur (Xanthium pensylvanicum); experiment: Test Example 5: foliar treatment on upland fields; conditions: 63 g/ha active ingredient; foliar spray; 18 days after application
Description: as §1
(§5) Plastic pots of 25×18 cm^2 in area and 7 cm in depth were filled with soil, in which the seeds of soybean (Glycine max), corn (Zea mays), entireleaf morningglory (Ipomoea hederacea var. integriuscula), common cocklebur (Xanthium pensylvanicum), common ragweed (Ambrosia artemisiifolia), and common lambsquarters (Chenopodium album) were sowed, and the test plants were grown for 16 days. Each of the test compounds listed below was formulated into an emulsifiable concentrate according to Formulation Example 2, which was diluted with water to a prescribed concentration. The dilution was uniformly sprayed over the foliage of the test plants with a sprayer at a volume of 1000 liters per hectare. At this time, the unfavorable weeds and crop plants, although their growth state was different depending upon the weed species, were at the 1- to 4-leaf stage, and the plant height was 5 to 20 cm. After 18 days from the application, the herbicidal activity and phytotoxicity were examined. This test was made in a greenhouse over the entire period.

[13] = system: entireleaf morningglory (Ipomoea hederacea var. integriuscula); experiment: Test Example 5: foliar treatment on upland fields; conditions: 63 g/ha active ingredient; foliar spray; 18 days after application
Description: as §1, §5

[14] = system: common ragweed (Ambrosia artemisiifolia); experiment: Test Example 5: foliar treatment on upland fields; conditions: 63 g/ha active ingredient; foliar spray; 18 days after application
Description: as §1, §5

[15] = system: common lambsquarters (Chenopodium album); experiment: Test Example 5: foliar treatment on upland fields; conditions: 63 g/ha active ingredient; foliar spray; 18 days after application
Description: as §1, §5

[16] = system: pale smartweed (Polygonum lapathifolium); experiment: Test Example 7: soil surface treatment on upland fields; conditions: 63 g/ha active ingredient; soil surface spray; examined after 19 days
Description: as §1
(§6) Plastic pots of 25×18 cm^2 in area and 7 cm in depth were filled with soil, in which the seeds of soybean (Glycine max), corn (Zea mays), common lambsquarters (Chenopodium album), slender amaranth (Amaranthus gracilis), and pale smartweed (Polygonum lapathifolium) were sowed. Each of the test compounds listed below was formulated into an emulsifiable concentrate according to Formulation Example 2, which was diluted with water to a prescribed concentration. The dilution was uniformly sprayed over the soil surface in the pots with a sprayer at a volume of 1000 liters per hectare. After the application, the test plants were grown in a greenhouse for 19 days, and the herbicidal activity and phytotoxicity were examined.

[17] = system: slender amaranth (Amaranthus gracilis); experiment: as above; conditions: 63 g/ha active ingredient; soil surface spray; examined after 19 days
Description: as §1, §6

[18] = system: common lambsquarters (Chenopodium album); experiment: as above; conditions: 63 g/ha active ingredient; soil surface spray; examined after 19 days
Description: as §1, §6

[19] = system: soybean (Glycine max); experiment: Test Example 5: foliar treatment on upland fields (phytotoxicity); conditions: 63 g/ha active ingredient; foliar spray; 18 days after application
Description: as §1, §5

[20] = system: corn (Zea mays); experiment: as above; conditions: 63 g/ha active ingredient; foliar spray; 18 days after application
Description: as §1, §5

C#CCOc1cc(-n2ncc(C(F)(F)F)c(C)c2=O)c(F)cc1Cl [Compound 1-486, 2-(4-Chloro-2-fluoro-5-propargyloxyphenyl)-4-methyl-5-trifluoromethylpyridazin-3-one]
5: Herbicidal activity Velvetleaf [1] | Herbicidal activity Entireleaf morningglory [3] | Herbicidal activity and phytotoxicity Pale smartweed [4] | Herbicidal activity and phytotoxicity Catchweed bedstraw [5] | Herbicidal activity and phytotoxicity Common chickweed [6] | Herbicidal activity Velvetleaf [7] | Herbicidal activity Entireleaf morningglory [8] | Herbicidal activity Velvetleaf [9] | Herbicidal activity Entireleaf morningglory [10] | Herbicidal activity Barnyardgrass [11]
4: Herbicidal activity Barnyardgrass [2]

CCOC(=O)COc1cc(-n2ncc(C(F)(F)F)c(C)c2=O)c(F)cc1Cl [Compound 1-496, Ethyl 2-chloro-4-fluoro-5-(4-methyl-5-trifluoromethyl-3-pyridazinon-2-yl)phenoxyacetate]
4: Herbicidal activity and phytotoxicity Pale smartweed [4] | Herbicidal activity and phytotoxicity Common chickweed [6]
5: Herbicidal activity and phytotoxicity Common cocklebur [12] | Herbicidal activity and phytotoxicity Entireleaf morningglory [13] | Herbicidal activity and phytotoxicity Common ragweed [14] | Herbicidal activity and phytotoxicity Common lambsquarters [15] | Herbicidal activity Velvetleaf [1] | Herbicidal activity Barnyardgrass [2] | Herbicidal activity Entireleaf morningglory [3] | Herbicidal activity and phytotoxicity Catchweed bedstraw [5] | Herbicidal activity Velvetleaf [7] | Herbicidal activity Entireleaf morningglory [8] | Herbicidal activity Velvetleaf [9] | Herbicidal activity Entireleaf morningglory [10] | Herbicidal activity Barnyardgrass [11]

CCOC(=O)c1cc(-n2ncc(C(F)(F)F)c(C)c2=O)c(F)cc1Cl [Compound 1-642, Ethyl 2-chloro-4-fluoro-5-(4-methyl-5-trifluoromethyl-3-pyridazinon-2-yl)benzoate]
5: Herbicidal activity Velvetleaf [1] | Herbicidal activity Barnyardgrass [2] | Herbicidal activity Entireleaf morningglory [3] | Herbicidal activity and phytotoxicity Pale smartweed [16] | Herbicidal activity and phytotoxicity Slender amaranth [17] | Herbicidal activity and phytotoxicity Common lambsquarters [18] | Herbicidal activity Velvetleaf [7] | Herbicidal activity Entireleaf morningglory [8] | Herbicidal activity Velvetleaf [9] | Herbicidal activity Entireleaf morningglory [10] | Herbicidal activity Barnyardgrass [11]

C#CCN1C(=O)COc2ccc(-n3ncc(C(F)(F)F)c(C)c3=O)cc21 [Compound 2-203, 6-(4-Methyl-5-trifluoromethyl-3-pyridazinon-2-yl)-4-propargyl-2H-1,4-benzoxazin-3-one]
4: Herbicidal activity Barnyardgrass [2]
5: Herbicidal activity Velvetleaf [1] | Herbicidal activity Entireleaf morningglory [3] | Herbicidal activity and phytotoxicity Pale smartweed [16] | Herbicidal activity and phytotoxicity Slender amaranth [17] | Herbicidal activity and phytotoxicity Common lambsquarters [18] | Herbicidal activity Velvetleaf [7] | Herbicidal activity Entireleaf morningglory [8] | Herbicidal activity Velvetleaf [9] | Herbicidal activity Entireleaf morningglory [10] | Herbicidal activity Barnyardgrass [11]

C#CCN1C(=O)COc2cc(F)c(-n3ncc(C(F)(F)F)cc3=O)cc21 [Compound 2-631, 7-Fluoro-6-(5-trifluoromethyl-3-pyridazinon-2-yl)-4-propargyl-2H-1,4-benzoxazin-3-one]
5: Herbicidal activity Velvetleaf [1] | Herbicidal activity Barnyardgrass [2] | Herbicidal activity Entireleaf morningglory [3] | Herbicidal activity and phytotoxicity Pale smartweed [16] | Herbicidal activity and phytotoxicity Slender amaranth [17] | Herbicidal activity and phytotoxicity Common lambsquarters [18] | Herbicidal activity Velvetleaf [7] | Herbicidal activity Entireleaf morningglory [8] | Herbicidal activity Velvetleaf [9] | Herbicidal activity Entireleaf morningglory [10] | Herbicidal activity Barnyardgrass [11]

Pentyl 2-chloro-4-fluoro-5-(4-methyl-5-trifluoromethyl-3-pyridazinon-2-yl) phenoxyacetate [Compound 1-499]
5: Herbicidal activity and phytotoxicity Common cocklebur [12] | Herbicidal activity and phytotoxicity Entireleaf morningglory [13] | Herbicidal activity and phytotoxicity Common ragweed [14] | Herbicidal activity Velvetleaf [1] | Herbicidal activity Barnyardgrass [2] | Herbicidal activity Entireleaf morningglory [3] | Herbicidal activity Velvetleaf [7] | Herbicidal activity Entireleaf morningglory [8] | Herbicidal activity Velvetleaf [9] | Herbicidal activity Entireleaf morningglory [10] | Herbicidal activity Barnyardgrass [11]
1: Herbicidal activity and phytotoxicity Soybean [19] | Herbicidal activity and phytotoxicity Corn [20]
4: Herbicidal activity and phytotoxicity Common lambsquarters [15]
